From ChEMBL document CHEMBL4765295, “Synthesis, pharmacological profile and 2D-QSAR studies of curcumin-amino acid conjugates as potential drug candidates” (Eur J Med Chem, 2020)
Where “and” joins values, the source holds several entries; their conditions need not be identical. Identical values can stand only once.

Tests used:
Rattus norvegicus [1] = assay: Anti-inflammatory activity in Wistar rat assessed as inhibition of carrageenan-induced paw edema at 10 mg/kg, ip pretreated for 1 hr followed by carrageenan challenge and measured after 4 hr relative to indomethacin; type: functional; conditions: time 5 hrs
PC-3 = assay: Antiproliferative activity against human PC3 cells assessed as inhibition of cell growth after 72 hrs by MTT assay; type: functional, cell-based; conditions: PC-3, 72 h
Streptococcus pyogenes = assay: Antibacterial activity against Streptococcus pyogenes ATCC 19615 incubated for 18 hrs by agar dilution method; type: functional
Staphylococcus aureus = assay: Antibacterial activity against Staphylococcus aureus ATCC 25923 incubated for 18 hrs by agar dilution method; type: functional
A549 = assay: Antiproliferative activity against human A549 cells assessed as inhibition of cell growth after 72 hrs by MTT assay; type: functional, cell-based; conditions: A549, 72 h
Splenocyte [2] = assay: Immunomodulatory activity in Swiss albino mouse splenocytes assessed as cell viability at 10 uM by measuring inhibition of stimulation index incubated for 72 hrs in presence of mitogenic stimulus phytohaemagglutinin by MTT assay relative to indomethacin; type: functional; conditions: read-out: Activity
Rattus norvegicus [3] = assay: Anti-inflammatory activity in Wistar rat assessed as inhibition of carrageenan-induced paw edema at 10 mg/kg, ip pretreated for 1 hr followed by carrageenan challenge and measured after 2 hr relative to control (reference value: 0.00 +/-0.03 %); type: functional; conditions: time 3 hrs
Rattus norvegicus [4] = assay: Antiinflammatory activity in Wistar rat model of carrageenan-induced paw edema assessed as reduction in thickness of paw edema at 10 mg/kg, ip pretreated for 1 hr followed by carrageenan challenge and measured after 2 hrs (reference value: 2.06 +/-0.09 mm); type: functional; conditions: time 3 hrs
Rattus norvegicus [5] = assay: Antiinflammatory activity in Wistar rat model of carrageenan-induced paw edema assessed as reduction in thickness of paw edema at 10 mg/kg, ip pretreated for 1 hr followed by carrageenan challenge and measured after 24 hrs (reference value: 0.83 +/-0.08 mm); type: functional; conditions: time 25 hrs
Rattus norvegicus [6] = assay: Anti-inflammatory activity in Wistar rat assessed as inhibition of carrageenan-induced paw edema at 10 mg/kg, ip pretreated for 1 hr followed by carrageenan challenge and measured after 4 hr relative to control (reference value: 0.00 +/-0.4 %); type: functional; conditions: time 5 hrs
Peritoneal macrophage [7] = assay: Antiinflammatory activity in […] mouse Peritoneal macrophages assessed as reduction in LPS-induced NO production by measuring reduction in stimulation index at 10 uM preincubated for 1 hr followed by LPS stimulation measured after 24 hrs by Griess method (reference value: 27.31 +/- 2.56 uM); type: functional; conditions: time 25 hrs
Peritoneal macrophage [8] = assay: Antiinflammatory activity in […] mouse Peritoneal macrophages assessed as inhibition of LPS-induced NO production at 10 uM preincubated for 1 hr followed by LPS stimulation measured after 24 hrs by Griess method relative to control (reference value: 0.0 %); type: functional; design: scale not given: the % may be the effect or the level left; conditions: time 25 hrs
Rattus norvegicus [9] = assay: Antiinflammatory activity in Wistar rat model of carrageenan-induced paw edema assessed as reduction in thickness of paw edema at 10 mg/kg, ip pretreated for 1 hr followed by carrageenan challenge and measured after 1 hr (reference value: 2.41 +/-0.05 mm); type: functional; conditions: time 1 hr after carrageenan
Splenocyte [10] = assay: Immunomodulatory activity in Swiss albino mouse splenocytes assessed as cell viability at 10 uM by measuring stimulation index incubated for 72 hrs in presence of mitogenic stimulus phytohaemagglutinin by MTT assay (reference value: 1.00 +/- 0.24); type: functional
MCF7 = assay: Antiproliferative activity against human MCF7 cells assessed as inhibition of cell growth after 72 hrs by MTT assay; type: functional, cell-based; conditions: MCF7, 72 h
Pseudomonas aeruginosa = assay: Antibacterial activity against Pseudomonas aeruginosa ATCC 27853 incubated for 18 hrs by agar dilution assay; type: functional
Rattus norvegicus [11] = assay: Anti-inflammatory activity in Wistar rat assessed as inhibition of carrageenan-induced paw edema at 10 mg/kg, ip pretreated for 1 hr followed by carrageenan challenge and measured after 24 hr relative to control (reference value: 0.00 +/-0.3 %); type: functional; conditions: time 25 hrs
Rattus norvegicus [12] = assay: Anti-inflammatory activity in Wistar rat assessed as inhibition of carrageenan-induced paw edema at 10 mg/kg, ip pretreated for 1 hr followed by carrageenan challenge and measured after 1 hr relative to control (reference value: 0.00 +/-0.02 %); type: functional; conditions: time 2 hrs
Candida albicans = assay: Antifungal activity against Candida albicans incubated for 18 to 24 hrs by CLSI method; type: functional; conditions: time 18-24 hrs
Rattus norvegicus [13] = assay: Antiinflammatory activity in Wistar rat model of carrageenan-induced paw edema assessed as reduction in thickness of paw edema at 10 mg/kg, ip pretreated for 1 hr followed by carrageenan challenge and measured after 4 hrs (reference value: 1.40 +/-0.10 mm); type: functional; conditions: time 5 hrs
Salmonella typhimurium = assay: Antibacterial activity against Salmonella typhimurium ATCC 19430 incubated for 18 hrs by agar dilution assay; type: functional, Salmonella enterica subsp. enterica serovar Typhimurium; conditions: Salmonella enterica
Rattus norvegicus [14] = assay: Antiinflammatory activity in Wistar rat model of carrageenan-induced paw edema assessed as reduction in thickness of paw edema at 10 mg/kg, ip pretreated for 1 hr followed by carrageenan challenge and measured after 3 hrs (reference value: 1.79 +/-0.07 mm); type: functional; conditions: time 4 hrs
Rattus norvegicus [15] = assay: Anti-inflammatory activity in Wistar rat assessed as inhibition of carrageenan-induced paw edema at 10 mg/kg, ip pretreated for 1 hr followed by carrageenan challenge and measured after 3 hr relative to control (reference value: 0.00 +/-0.1 %); type: functional; conditions: time 4 hrs
Mus musculus [16] = assay: Analgesic activity in albino mouse assessed as forepaw licking/jumping latency time at 10 mg/kg, ip measured after 30 mins by hot plate test (reference value: 5.02 +/- 0.09 sec); type: functional; conditions: 0.5 h
[17] = Ulcerogenic activity in fasted albino mouse assessed as ulcer index in gastric mucosa at 10 mg/kg, po for 3 days (reference value: 0); type: toxicity, organism-based; conditions: in vivo, 72 h, time 3 day
Mus musculus [18] = assay: Analgesic activity in albino mouse assessed as protection at 10 mg/kg, ip measured after 120 mins by hot plate test (reference value: 0 %); type: functional; conditions: 2 h
[19] = Ulcerogenic activity in fasted albino mouse assessed as incidence of gastric ulceration at 10 mg/kg, po for 3 days (reference value: 0 %); type: toxicity, organism-based; conditions: in vivo, 72 h, time 3 day
Mus musculus [20] = assay: Analgesic activity in albino mouse assessed reduction in acetic acid-induced abdominal writhing by measuring writing reflex at 10 mg/kg, ip pretreated for 1 hr followed by acetic acid challenge and measured starting 5 mins post acetic acid challenge for 10 mins (reference value: 42.4 +/- 1.02); type: functional; conditions: time 75 min, 1.25 h
[21] = Ulcerogenic activity in fasted albino mouse assessed as average number of ulcers in gastric mucosa at 10 mg/kg, po for 3 days (reference value: 0); type: toxicity, organism-based; conditions: in vivo, 72 h, time 3 day
Mus musculus [22] = assay: Analgesic activity in albino mouse assessed as protection at 10 mg/kg, ip measured after 30 mins by hot plate test (reference value: 0 %); type: functional; conditions: 0.5 h
Mus musculus [23] = assay: Analgesic activity in albino mouse assessed protection against acetic acid-induced abdominal writhing at 10 mg/kg, ip pretreated for 1 hr followed by acetic acid challenge and measured starting 5 mins post acetic acid challenge for 10 mins relative to indomethacin; type: functional; conditions: time 75 min, 1.25 h
[24] = Ulcerogenic activity in fasted albino mouse assessed as average severity of ulcers in gastric mucosa at 10 mg/kg, po for 3 days (reference value: 0); type: toxicity, organism-based; conditions: in vivo, 72 h, time 3 day
Mus musculus [25] = assay: Analgesic activity in albino mouse assessed protection against acetic acid-induced abdominal writhing at 10 mg/kg, ip pretreated for 1 hr followed by acetic acid challenge and measured starting 5 mins post acetic acid challenge for 10 mins relative to control (reference value: 0 %); type: functional; conditions: time 75 min, 1.25 h
[26] = Toxicity in albino mouse assessed as induction of toxic symptoms at 50 to 100 mg/kg, ip measured after 24 hrs; type: organism-based; conditions: in vivo, dose 50-100 mg/kg
Mus musculus [27] = assay: Analgesic activity in albino mouse assessed as forepaw licking/jumping latency time at 10 mg/kg, ip measured after 120 mins by hot plate test (reference value: 2.62 +/- 0.06 sec); type: functional; conditions: 2 h
Mus musculus [28] = assay: Analgesic activity in albino mouse assessed as forepaw licking/jumping latency time at 10 mg/kg, ip measured after 60 mins by hot plate test (reference value: 3.42 +/- 0.03 sec); type: functional; conditions: 1 h
Mus musculus [29] = assay: Analgesic activity in albino mouse assessed as forepaw licking/jumping latency time at 10 mg/kg, ip measured after 90 mins by hot plate test (reference value: 2.72 +/- 0.01 sec); type: functional; conditions: 1.5 h
Mus musculus [30] = assay: Analgesic activity in albino mouse assessed as protection at 10 mg/kg, ip measured after 90 mins by hot plate test (reference value: 0 %); type: functional; conditions: 1.5 h
Mus musculus [31] = assay: Analgesic activity in albino mouse assessed as protection at 10 mg/kg, ip measured after 120 mins by hot plate test relative to indomethacin; type: functional; conditions: 2 h
Mus musculus [32] = assay: Analgesic activity in albino mouse assessed as protection at 10 mg/kg, ip measured after 60 mins by hot plate test (reference value: 0 %); type: functional; conditions: 1 h

Compound: COc1cc(/C=C/C(=O)/C=C(O)/C=C/c2ccc(OC(=O)[C@@H](N)CCC(N)=O)c(OC)c2)ccc1OC(=O)[C@@H](N)CCC(N)=O.Cl.Cl
- inhibition in vivo at 10 mg/kg (Rattus norvegicus [1]): 48%
- IC50 (PC-3): 34.4 µM
- MIC (Streptococcus pyogenes): 0.5 µg/mL and 0.717 µM
- MIC (Staphylococcus aureus): 0.25 µg/mL and 0.358 µM
- IC50 (A549): 21.1 µM
- viability at 10 µM (Splenocyte [2]): 54.5%
- inhibition in vivo at 10 mg/kg (Rattus norvegicus [3]): 45%
- Activity (Rattus norvegicus [4]): 1.14 mm
- Activity (Rattus norvegicus [5]): 0.57 mm
- inhibition in vivo at 10 mg/kg (Rattus norvegicus [6]): 42%
- Activity (Peritoneal macrophage [7]): 21.75 µM
- Activity (Peritoneal macrophage [8]): 20.35%
- Activity (Rattus norvegicus [9]): 1.29 mm
- Activity_index (Splenocyte [10]): 2.22
- IC50 (MCF7): 9.15 µM
- MIC (Pseudomonas aeruginosa): 0.5 µg/mL and 0.717 µM
- inhibition in vivo at 10 mg/kg (Rattus norvegicus [11]): 31%
- inhibition in vivo at 10 mg/kg (Rattus norvegicus [12]): 46%
- MIC (Candida albicans): 0.125 µg/mL and 0.179 µM
- Activity (Rattus norvegicus [13]): 0.81 mm
- MIC (Salmonella typhimurium): 0.125 µg/mL and 0.179 µM
- Activity (Rattus norvegicus [14]): 1.02 mm
- inhibition in vivo at 10 mg/kg (Rattus norvegicus [15]): 43%

Compound: COc1cc(/C=C/C(=O)/C=C(O)/C=C/c2ccc(OC(=O)CN)c(OC)c2)ccc1OC(=O)CN.Cl.Cl
- Time (Mus musculus [16]): 5.04 s
- UI [17]: 0
- inhibition in vivo at 10 mg/kg (Rattus norvegicus [1]): 101%
- IC50 (PC-3): 38.7 µM
- MIC (Streptococcus pyogenes): 0.25 µg/mL and 0.45 µM
- Activity (Mus musculus [18]): 34.4%
- MIC (Staphylococcus aureus): 0.5 µg/mL and 0.9 µM
- Activity [19]: 0%
- IC50 (A549): 18.9 µM
- Activity (Mus musculus [20]): 14.6
- Activity [21]: 0
- viability at 10 µM (Splenocyte [2]): 122%
- inhibition in vivo at 10 mg/kg (Rattus norvegicus [3]): 67%
- Activity (Mus musculus [22]): 0.4%
- Activity (Mus musculus [23]): 106.5%
- Activity (Rattus norvegicus [4]): 0.69 mm
- Activity [24]: 0
- Activity (Mus musculus [25]): 65.6%
- Activity (Rattus norvegicus [5]): 0.48 mm
- inhibition in vivo at 10 mg/kg (Rattus norvegicus [6]): 88%
- Activity [26]: Non-Toxic
- Activity (Peritoneal macrophage [7]): 13.66 µM
- Activity (Peritoneal macrophage [8]): 49.98%
- Activity (Rattus norvegicus [9]): 0.82 mm
- Activity_index (Splenocyte [10]): 0.99
- Time (Mus musculus [27]): 3.52 s
- Time (Mus musculus [28]): 4.28 s
- IC50 (MCF7): 9.15 µM
- MIC (Pseudomonas aeruginosa): 1 µg/mL and 1.8 µM
- inhibition in vivo at 10 mg/kg (Rattus norvegicus [11]): 42%
- Time (Mus musculus [29]): 3.66 s
- inhibition in vivo at 10 mg/kg (Rattus norvegicus [12]): 66%
- MIC (Candida albicans): 1 µg/mL and 1.8 µM
- Activity (Rattus norvegicus [13]): 0.17 mm
- MIC (Salmonella typhimurium): 0.25 µg/mL and 0.45 µM
- Activity (Mus musculus [30]): 34.6%
- Activity (Mus musculus [31]): 81.9%
- Activity (Mus musculus [32]): 25.1%
- Activity (Rattus norvegicus [14]): 0.46 mm
- inhibition in vivo at 10 mg/kg (Rattus norvegicus [15]): 74%
